Laboratory results: US6558900B2, “Regulation of apoptosis and in vitro model for studies thereof” (Emory University, priority 1996, dated 2003)

Tested on: CPP32
Assay: Activation of endogenous CPP32 in HeLa cell S-100 (Western blot; cleavage of 35S-labeled PARP and SREBP-2)
Format: biochemical, human
Conditions: 1 mM nucleotide
Description: FIGS. 1A-1D illustrate dATP-dependent activation of CPP32 and DNA fragmentation in vitro. Aliquots (10 μl) of HeLa cell S-100 (50 μg) were incubated alone (lane 1), in the presence of 1 mM ATP (lane 2), or in the presence of 1 mM dATP (lane 3) at 30° C. for 1 hr in a final volume of 20 μl of buffer A. FIG. 1A, samples were subjected to SDS-PAGE and transferred to a nitrocellulose filter, probed with a monoclonal anti-CPP32 antibody, and the antigen/antibody complex was visualized by the ECL method. The filter was exposed to Kodak X-OMAT AR X-ray film for 1 min. In FIG. 1B, an aliquot of 10 μl of in vitro translated, ^35S-labeled PARP was added to each reaction. After 5 min, the samples were subjected to SDS-PAGE and transferred to a nitrocellulose filter. The filter was exposed to film for 2 hr at room temperature. In FIG. 1C, a 5 μl aliquot of in vitro translated, ^35S-labeled SREBP-2 was added to each reaction. After incubation at 30° C. for 30 min, the samples were subjected to SDS-PAGE, the gel was dried and exposed to film for 2 hr at room temperature. In FIG. 1D, a 50 μlaliquot of HeLa cell S-100 (250 μg) was incubated with 6 μl Hamster Liver nuclei in the absence (lane 1), or presence of 1 mM ATP (lane 2) or dATP (lane 3) for 2 hr at 37° C. in a final volume of 60 μl of buffer A. DNA was isolated as described in the Examples and size-separated by agarose gel electrophoresis (2% agarose), and the DNA was visualized by ethidium bromide staining.
Activation of CPP32 and DNA fragmentation are two well characterized biochemical markers of apoptosis and its initiation. With the goal of producing an in vitro system that duplicates apoptosis, we prepared 100,000×g cytosolic supernatant (S-100) from suspension cultures of HeLa cells. The activation of CPP32 is the result of cleavage of its 32 kDa precursor into the 20 kDa NH2-terminal fragment and 11 kDa COOH-terminal fragment [Nicholson et al. (1995) supra], thus the activation of CPP32 in the HeLa cell S-100 was monitored by Western blot analysis using a monoclonal antibody against the 20 kDa fragment of CPP32 (FIG. 1A). The enzymatic activity of CPP32 was assayed by measuring the cleavage of two ^35S-labeled substrates, PARP (FIG. 1B) and SREBP-2 (FIG. 1C). DNA fragmentation was assayed by incubating the HeLa cell S-100 with nuclei isolated from hamster liver followed by genomic DNA extraction and analysis by agarose gel electrophoresis. […] The sizes of the cleaved products of PARP and SREBP-2 were the same as observed in cells undergoing apoptosis [Kaufmann et al. (1993) Cancer Res. 53, 3976-3985; Wang et al. (1996) supra]. […]

Structure (SMILES): Nc1ncnc2c1ncn2[C@H]1C[C@H](O)[C@@H](COP(=O)(O)OP(=O)(O)OP(=O)(O)O)O1 [dATP, deoxyadenosine-5-triphosphate]
- cleavage of 35S-labeled PARP by activated extract: readily cleaved PARP into 85 kDa and 24 kDa fragments
- cleavage of 35S-labeled SREBP-2 by activated extract: SREBP-2 into 55 kDa and 70 kDa fragments
- activation of CPP32 in HeLa cell S-100 (30° C., 1 hr, Western blot): most of the CPP32 in the HeLa cell S-100 was activated
